From US20230382889A1 (Volastra Therapeutics, Inc., priority 2022, published 2023) come the findings set out here.

hKIF18A (1-374), sequence (Q8NI77 1-374): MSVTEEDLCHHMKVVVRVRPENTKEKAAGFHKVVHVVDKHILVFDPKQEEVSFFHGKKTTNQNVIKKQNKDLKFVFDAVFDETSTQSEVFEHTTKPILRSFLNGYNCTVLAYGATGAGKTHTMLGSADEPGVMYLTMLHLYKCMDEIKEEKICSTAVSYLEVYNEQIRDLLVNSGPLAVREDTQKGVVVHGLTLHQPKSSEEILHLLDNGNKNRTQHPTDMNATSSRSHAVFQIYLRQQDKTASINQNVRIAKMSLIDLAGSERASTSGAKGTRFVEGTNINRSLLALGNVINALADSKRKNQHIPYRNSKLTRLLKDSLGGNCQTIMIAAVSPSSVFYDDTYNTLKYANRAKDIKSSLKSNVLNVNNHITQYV

In the test the target is hKIF18A (1-374) (Homo sapiens (Human), UniProt Q8NI77). The test is described as follows: Inhibition of KIF18A microtubule-dependent ATPase activity (ADP-Glo). The format is biochemical. To be noted: 4 nM hKIF18A (1-374). An outline of the steps:
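Reaction was started with pre-formed microtubules and ATP (0.2 mg/mL and 2.0 mM in the added mix) and run 60 min at 28 °C. ADP was read by ADP-Glo luminescence, and IC50 came from a four-parameter fit of % inhibition.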
Consider `Cc1cc(N2CCC(F)(F)CC2)nc(-n2cc(-c3ccc(NS(=O)(=O)C4CC4)cc3N3CCC4(CC3)CC4)nn2)c1` [Compound 105, N-(4-(1-(6-(4,4-difluoropiperidin-1-yl)-4-methylpyridin-2-yl)-1H-1,2,3-triazol-4-yl)-3-(6-azaspiro[2.5]octan-6-yl)phenyl)cyclopropanesulfonamide], for which the half-maximal inhibitory concentration (IC50) (in general, the concentration at which inhibition is half-maximal) is 75 nM. `O=S(=O)(CCO)Nc1ccc(-n2cc(-c3ccn(CC4CCC4)n3)nn2)c(N2CCC3(CC2)CC3)c1` [Compound 77, N-(4-(4-(1-(cyclobutylmethyl)-1H-pyrazol-3-yl)-1H-1,2,3-triazol-1-yl)-3-(6-azaspiro[2.5]octan-6-yl)phenyl)-2-hydroxyethane-1-sulfonamide] had an IC50 of 12 nM.

The molecule `O=S(=O)(CCO)Nc1ccc(-n2cc(-c3cncc(OC4CCCC4)n3)nn2)c(N2CCC3(CC2)CC3)c1` [Compound 150, N-(4-(4-(6-(cyclpentyloxy)pyrazin-2-yl)-1H-1,2,3-triazol-1-yl)-3-(6-azaspiro[2.5]octan-6-yl)phenyl)-2-hydroxyethane-1-sulfonamide] yielded an IC50 of 6 nM. Compared with the last molecule, the IC50 is about 2-fold lower. Take `CS(=O)(=O)Nc1ccc(-c2ncc(-c3cccc(N4CC5C(C4)C5(F)F)n3)[nH]2)c(N2CCC3(CC2)CC3)c1` (stereo not shown) [Compound 30, N-(4-(5-(6-(6,6-difluoro-3-azabicyclo[3.1.0]hexan-3-yl)pyridin-2-yl)-1H-imidazol-2-yl)-3-(6-azaspiro[2.5]octan-6-yl)phenyl)methanesulfonamide]: half-maximal inhibition (IC50) required 21 nM. As for `CCS(=O)(=O)Nc1ccc(-n2cc(-c3ccc(S(=O)(=O)NC(C)(C)C)o3)nn2)c(N2CCC3(CC2)CC3)c1` [Compound 132, N-(tert-butyl)-5-(1-(4-(ethylsulfonamido)-2-(6-azaspiro[2.5]octan-6-yl)phenyl)-1H-1,2,3-triazol-4-yl)furan-2-sulfonamide], the half-maximal inhibitory concentration (IC50) is 8.5 nM. Compared with the last molecule, the IC50 is about 2.5-fold lower. Under `O=S(=O)(CCO)Nc1ccc(-c2cn(-c3cccc(N4CCC(F)(F)CC4)c3)nn2)c(N2CCC3(CC2)CC3)c1` [Compound 65, N-(4-(1-(3-(4,4-difluoropiperidin-1-yl)phenyl)-1H-1,2,3-triazol-4-yl)-3-(6-azaspiro[2.5]octan-6-yl)phenyl)-2-hydroxyethane-1-sulfonamide] stands 8.6 nM; under `CS(=O)(=O)Nc1ccc(-n2cc(-c3cccc(N4CCC(F)(F)CC4)n3)nn2)c(N2CCCCCC2)c1` [Compound 52, N-(3-(azepan-1-yl)-4-(4-(6-(4,4-difluoropiperidin-1-yl)pyridin-2-yl)-1H-1,2,3-triazol-1-yl)phenyl)methanesulfonamide], 18 nM. `CCS(=O)(=O)Nc1ccc(-n2cc(-c3ccc(C(O)C4CCCC4)o3)nn2)c(N2CCC3(CC2)CC3)c1` (stereo not shown) [Compound 123, N-(4-(4-(5-(cyclopentyl(hydroxy)methyl)furan-2-yl)-1H-1,2,3-triazol-1-yl)-3-(6-azaspiro[2.5]octan-6-yl)phenyl)ethanesulfonamide]: 4.6 nM corresponded to half-maximal inhibition (IC50). Against the preceding molecule, the IC50 is about 3.9-fold lower. `Cc1ncc(-c2cn(-c3ccc(NS(=O)(=O)CCO)cc3N3CCC4(CC3)CC4)nn2)nc1N1CCC(F)(F)CC1` [Compound 124, N-(4-(4-(6-(4,4-difluoropiperidin-1-yl)-5-methylpyrazin-2-yl)-1H-1,2,3-triazol-1-yl)-3-(6-azaspiro[2.5]octan-6-yl)phenyl)-2-hydroxyethane-1-sulfonamide] came in with an IC50 of 7.3 nM.

The molecule `O=S(=O)(CCO)Nc1ccc(-n2cc(-c3ccc(F)c(C4=CCC(F)(F)CC4)n3)nn2)c(N2CCC3(CC2)CC3)c1` [Compound 162, N-(4-(4-(6-(4,4-difluorocyclohex-1-en-1-yl)-5-fluoropyridin-2-yl)-1H-1,2,3-triazol-1-yl)-3-(6-azaspiro[2.5]octan-6-yl)phenyl)-2-hydroxyethane-1-sulfonamide] showed an IC50 of 20 nM. Compared with the last molecule, the IC50 is about 2.7-fold higher.

For the molecule `Cc1cc(-c2cn(-c3ccc(NS(=O)(=O)CCO)cc3N3CCC(C(F)F)CC3)nn2)nc(N2CCC(F)(F)CC2)c1` [Compound 104, N-(3-(4-(difluoromethyl)piperidin-1-yl)-4-(4-(6-(4,4-difluoropiperidin-1-yl)-4-methylpyridin-2-yl)-1H-1,2,3-triazol-1-yl)phenyl)-2-hydroxyethane-1-sulfonamide], the half-maximal inhibitory concentration (IC50) is 15 nM. Then `Cc1cc(-c2cn(-c3ccc(NS(=O)(=O)CCO)cc3N3CCC4(CC3)CC4)nn2)nc(N2CCC(F)(F)CC2)c1` [Compound 48, N-(4-(4-(6-(4,4-difluoropiperidin-1-yl)-4-methylpyridin-2-yl)-1H-1,2,3-triazol-1-yl)-3-(6-azaspiro[2.5]octan-6-yl)phenyl)-2-hydroxyethane-1-sulfonamide], with 17 nM; and `CS(=O)(=O)Nc1ccc(-n2cc(-c3cccc(N4CC5CC(C4)O5)n3)nn2)c(N2CCC3(CC2)CC3)c1` [Compound 55, N-(4-(4-(6-(6-oxa-3-azabicyclo[3.1.1]heptan-3-yl)pyridin-2-yl)-1H-1,2,3-triazol-1-yl)-3-(6-azaspiro[2.5]octan-6-yl)phenyl)methanesulfonamide], with 29 nM; and `Cc1cc(-c2cn(-c3ccc(NS(=O)(=O)CCO)cc3N3CCC4(CC3)CC4)nn2)nc(N2CCC(C(F)F)C2)n1` (stereo not shown) [Compound 103, N-(4-(4-(2-(3-(difluoromethyl)pyrrolidin-1-yl)-6-methylpyrimidin-4-yl)-1H-1,2,3-triazol-1-yl)-3-(6-azaspiro[2.5]octan-6-yl)phenyl)-2-hydroxyethane-1-sulfonamide], with 20 nM. In turn, `O=S(=O)(CCO)Nc1ccc(-c2ncc(-c3cccc(N4CCC(F)(F)CC4)n3)[nH]2)c(N2CCC3(CC2)CC3)c1` [Compound 35, N-(4-(5-(6-(4,4-difluoropiperidin-1-yl)pyridin-2-yl)-1H-imidazol-2-yl)-3-(6-azaspiro[2.5]octan-6-yl)phenyl)-2-hydroxyethane-1-sulfonamide] showed a half-maximal inhibitory concentration (IC50) of 27 nM. In the case of `CCS(=O)(=O)Nc1ccc(-c2cn(-c3cc(C)cc(N4CCC(F)(F)CC4)n3)nn2)c(N2CCC3(CC2)CC3)c1` [Compound 108, N-(4-(1-(6-(4,4-difluoropiperidin-1-yl)-4-methylpyridin-2-yl)-1H-1,2,3-triazol-4-yl)-3-(6-azaspiro[2.5]octan-6-yl)phenyl)ethanesulfonamide], the IC50 was 63 nM. Then `CS(=O)(=O)Nc1cc(N2CCC3(CC2)CC3)c(-n2cc(-c3cccc(N4CCC(F)(F)CC4)n3)nn2)cn1` [Compound 59, N-(5-(4-(6-(4,4-difluoropiperidin-1-yl)pyridin-2-yl)-1H-1,2,3-triazol-1-yl)-4-(6-azaspiro[2.5]octan-6-yl)pyridin-2-yl)methanesulfonamide], with 1.6 nM; and `CC1CCN(c2cc(NS(=O)(=O)CCO)ccc2-n2cc(-c3cncc(N4CCC(F)(F)CC4)n3)nn2)CC1` [Compound 143, N-(4-(4-(6-(4,4-difluoropiperidin-1-yl)pyrazin-2-yl)-1H-1,2,3-triazol-1-yl)-3-(4-methylpiperidin-1-yl)phenyl)-2-hydroxyethane-1-sulfonamide], with 5.5 nM. Turning to `O=S(=O)(CCO)Nc1ccc(-c2cn(-c3ccc(F)c(S(=O)(=O)N4CC(F)(F)C4)c3)nn2)c(N2CCC3(CC2)CC3)n1` [Compound 111, N-(5-(1-(3-((3,3-difluoroazetidin-1-yl)sulfonyl)-4-fluorophenyl)-1H-1,2,3-triazol-4-yl)-6-(6-azaspiro[2.5]octan-6-yl)pyridin-2-yl)-2-hydroxyethane-1-sulfonamide], half-maximal inhibition (IC50) required 68 nM.
